From patent US11029279B2, “Method of detecting cells” (National Tsing Hua University, priority 2018, dated 2021)

Legend:
[1] = test system: human colorectal cancer cell line HCT-8 cells; experiment: Cadmium block of calcium channels (sensor device response); format: cell-based
Description: (§1) In the present example, the sensor device 200 shown in FIG. 2 was used for detection, wherein the distance between the response electrode of the sensor device and the gate end: 65 μm; and the area of the detection region: 10×60 μm^2. Moreover, a specific aptamer of a human colorectal cancer cell line HCT-8 cell was bonded to the response electrode of the sensor device.
(§2) In the present embodiment, source and drain properties were measured and recorded using an Agilent B1530/B1500A semiconductor parameter analyzer. Operating conditions: VD=2.5 V; Vg=2 V; pulse duration=50 μs. The change in source current before and after a gate bias is applied is defined as the current gain.
In the present embodiment, human colorectal cancer cell line HCT-8 cells were used as the target cells. The HCT-8 cells were cultured in an RPMI-1640 cell culture medium (Invitrogen Co., USA). […]
In experimental example 3, HBSS w/Ca and HBSS w/Ca containing different cadmium ion concentrations (5 uM, 10 uM, 20 uM, 50 uM, and 100 uM) are used as reference solutions, and the baselines of the sensor device were calculated using the reference solutions. […]

[2] = test system: human colorectal cancer cell line HCT-8 cells; experiment: Sensor device response to depolarization induced by KCl; format: cell-based
Description: as §1, §2
In the present embodiment, human colorectal cancer cell line HCT-8 cells were used as the target cells. The HCT-8 cells were cultured in an RPMI-1640 cell culture medium (Invitrogen Co., USA). During a subsequent electrical measurement, the HCT-8 cells were suspended in a Hank balanced salt solution having calcium ions and magnesium ions (hereinafter HBSS w/Ca&Mg), a Hank balanced salt solution without calcium ions and magnesium ions (hereinafter HBSS w/o Ca&Mg), or a Hank balanced salt solution having calcium ions (hereinafter HBSS w/Ca) to prepare a test solution. In the Hank balanced salt solution having calcium ions and magnesium ions (HBSS w/Ca&Mg), the calcium ions were 1.2 mM and the magnesium ions are 0.8 mM. […]

Compound	value of the detection current (Δ current gain) ([1]; cadmium concentration further increased from 20 μM to 100 μM in HBSS w/Ca, cells depolarized)	detection current (Δ current gain) ([1]; cadmium ion concentrations of 10 μM and 20 μM in HBSS w/Ca, cells repolarized)	value of the detection current (second current gain minus first current gain, Δ current gain) ([2]; KCl concentration of 5 mM in HBSS w/Ca&Mg, cells have polarized potential)	value of the detection current (second current gain minus first current gain, Δ current gain) ([2]; KCl concentration of 10 mM to 30 mM in HBSS w/Ca&Mg, cells depolarized)
[Cd+2] [cadmium ion]	negative	positive		
[Cl-].[K+] [KCl]			positive	negative
